Experimental data reported in paper PMC9823097, “Dysregulation of PRMT5 in chronic lymphocytic leukemia promotes progression with high risk of Richter’s transformation” (Nature Communications, 2023).

What was measured:
HG3 cells = assay: Cell growth curves over 12 days, HG3; type: cell-based; conditions: HG3, continuous exposure over 12 days
Procedure: (§1) Live cells/mL were counted on days 3, 6, 10, and 12. […] The split factor was calculated at indicated time points by dividing the counted cells/mL by 3E5. Cell growth was extrapolated over time by multiplying the subsequent cell count by the previous split factor. Cell growth is plotted as fold change relative to DMSO-treated cells.

Mec-1 cells = assay: Cell growth curves over 12 days, Mec-1; type: cell-based
Procedure: as §1

[1] = Mec-1, continuous exposure over 12 days

For `CON=c1nc[nH]c2c1ccn2[C@@H]1O[C@H]([C@H](O)c2ccc(Cl)c(Cl)c2)[C@@H](O)[C@H]1O.Cl` [PRT382, (2 R,3 S,4 R,5 R)-2-[(R)-(3,4-dichlorophenyl)-hydroxy-methyl]-5-[(4Z)-4-methoxyimino-1H-pyrrolo[2,3-d]pyrimidin-7-yl]tetrahydrofuran-3,4-diol hydrochloride], the “effect on growth potential (cell growth)” value (HG3 cells) was “time and dose-dependent growth inhibition”, the “anti-proliferative potency compared to JNJ-64619178, LLY-283, and PF-06855800” value (Mec-1 cells; Mec-1) was “similar-to-reduced” and the “Rep 1 Live Cells [Fold Change]” value (Mec-1 cells; Mec-1, 1 nM, day 0) was 1 Fold Change. For the same compound, the “Rep 2 Live Cells [Fold Change]” value (Mec-1 cells; Mec-1, 1 nM, day 0) was 1 Fold Change, the “Rep 3 Live Cells [Fold Change]” value (Mec-1 cells; Mec-1, 1 nM, day 0) was 1 Fold Change and the “Rep 1 Live Cells [Fold Change]” value (Mec-1 cells; Mec-1, 1 nM, day 3) was 5.48 Fold Change. The “Rep 2 Live Cells [Fold Change]” value (Mec-1 cells; Mec-1, 1 nM, day 3) was 7.38 Fold Change, the “Rep 3 Live Cells [Fold Change]” value (Mec-1 cells; Mec-1, 1 nM, day 3) was 6.82 Fold Change and the “Rep 1 Live Cells [Fold Change]” value (Mec-1 cells; Mec-1, 1 nM, day 6) was 47.7 Fold Change. For the same compound, the “Rep 2 Live Cells [Fold Change]” value (Mec-1 cells; Mec-1, 1 nM, day 6) was 61 Fold Change, the “Rep 3 Live Cells [Fold Change]” value (Mec-1 cells; Mec-1, 1 nM, day 6) was 62.4 Fold Change and the “Rep 1 Live Cells [Fold Change]” value (Mec-1 cells; Mec-1, 1 nM, day 10) was 655 Fold Change. For the same compound, the “Rep 2 Live Cells [Fold Change]” value (Mec-1 cells; Mec-1, 1 nM, day 10) was 809 Fold Change, the “Rep 3 Live Cells [Fold Change]” value (Mec-1 cells; Mec-1, 1 nM, day 10) was 898 Fold Change and the “Rep 1 Live Cells [Fold Change]” value (Mec-1 cells; Mec-1, 1 nM, day 12) was 2650 Fold Change. The “Rep 2 Live Cells [Fold Change]” value (Mec-1 cells; Mec-1, 1 nM, day 12) was 2940 Fold Change, the “Rep 3 Live Cells [Fold Change]” value (Mec-1 cells; Mec-1, 1 nM, day 12) was 4480 Fold Change and the “Rep 1 Live Cells [Fold Change]” value (Mec-1 cells; Mec-1, 10 nM, day 0) was 1 Fold Change. For the same compound, the “Rep 2 Live Cells [Fold Change]” value (Mec-1 cells; Mec-1, 10 nM, day 0) was 1 Fold Change, the “Rep 3 Live Cells [Fold Change]” value (Mec-1 cells; Mec-1, 10 nM, day 0) was 1 Fold Change and the “Rep 1 Live Cells [Fold Change]” value (Mec-1 cells; Mec-1, 10 nM, day 3) was 8.13 Fold Change. For the same compound, the “Rep 2 Live Cells [Fold Change]” value (Mec-1 cells; Mec-1, 10 nM, day 3) was 8.43 Fold Change, the “Rep 3 Live Cells [Fold Change]” value (Mec-1 cells; Mec-1, 10 nM, day 3) was 7.78 Fold Change and the “Rep 1 Live Cells [Fold Change]” value (Mec-1 cells; Mec-1, 10 nM, day 6) was 70.5 Fold Change. The “Rep 2 Live Cells [Fold Change]” value (Mec-1 cells; Mec-1, 10 nM, day 6) was 65.2 Fold Change, the “Rep 3 Live Cells [Fold Change]” value (Mec-1 cells; Mec-1, 10 nM, day 6) was 77.4 Fold Change and the “Rep 1 Live Cells [Fold Change]” value (Mec-1 cells; Mec-1, 10 nM, day 10) was 909 Fold Change. For the same compound, the “Rep 2 Live Cells [Fold Change]” value (Mec-1 cells; Mec-1, 10 nM, day 10) was 1080 Fold Change, the “Rep 3 Live Cells [Fold Change]” value (Mec-1 cells; Mec-1, 10 nM, day 10) was 887 Fold Change and the “Rep 1 Live Cells [Fold Change]” value (Mec-1 cells; Mec-1, 10 nM, day 12) was 3770 Fold Change. For the same compound, the “Rep 2 Live Cells [Fold Change]” value (Mec-1 cells; Mec-1, 10 nM, day 12) was 3720 Fold Change, the “Rep 3 Live Cells [Fold Change]” value (Mec-1 cells; Mec-1, 10 nM, day 12) was 6410 Fold Change and the “Rep 1 Live Cells [Fold Change]” value (Mec-1 cells; Mec-1, 100 nM, day 0) was 1 Fold Change. For the same compound, the “Rep 2 Live Cells [Fold Change]” value (Mec-1 cells; Mec-1, 100 nM, day 0) was 1 Fold Change, the “Rep 3 Live Cells [Fold Change]” value (Mec-1 cells; Mec-1, 100 nM, day 0) was 1 Fold Change and the “Rep 1 Live Cells [Fold Change]” value (Mec-1 cells; Mec-1, 100 nM, day 3) was 6.3 Fold Change. For the same compound, the “Rep 2 Live Cells [Fold Change]” value (Mec-1 cells; Mec-1, 100 nM, day 3) was 5.17 Fold Change, the “Rep 3 Live Cells [Fold Change]” value (Mec-1 cells; Mec-1, 100 nM, day 3) was 4.6 Fold Change and the “Rep 1 Live Cells [Fold Change]” value (Mec-1 cells; Mec-1, 100 nM, day 6) was 14 Fold Change. For the same compound, the “Rep 2 Live Cells [Fold Change]” value (Mec-1 cells; Mec-1, 100 nM, day 6) was 17.1 Fold Change, the “Rep 3 Live Cells [Fold Change]” value (Mec-1 cells; Mec-1, 100 nM, day 6) was 13.3 Fold Change and the “Rep 1 Live Cells [Fold Change]” value (Mec-1 cells; Mec-1, 100 nM, day 10) was 63 Fold Change. The “Rep 2 Live Cells [Fold Change]” value (Mec-1 cells; Mec-1, 100 nM, day 10) was 155 Fold Change, the “Rep 3 Live Cells [Fold Change]” value (Mec-1 cells; Mec-1, 100 nM, day 10) was 73.7 Fold Change and the “Rep 1 Live Cells [Fold Change]” value (Mec-1 cells; Mec-1, 100 nM, day 12) was 100 Fold Change. For the same compound, the “Rep 2 Live Cells [Fold Change]” value (Mec-1 cells; Mec-1, 100 nM, day 12) was 297 Fold Change, the “Rep 3 Live Cells [Fold Change]” value (Mec-1 cells; Mec-1, 100 nM, day 12) was 92.2 Fold Change and the “Rep 1 Live Cells [Fold Change]” value (Mec-1 cells; Mec-1, 1 µM, day 0) was 1 Fold Change. The “Rep 2 Live Cells [Fold Change]” value (Mec-1 cells; Mec-1, 1 µM, day 0) was 1 Fold Change, the “Rep 3 Live Cells [Fold Change]” value (Mec-1 cells; Mec-1, 1 µM, day 0) was 1 Fold Change and the “Rep 1 Live Cells [Fold Change]” value (Mec-1 cells; Mec-1, 1 µM, day 3) was 3.87 Fold Change. The “Rep 2 Live Cells [Fold Change]” value (Mec-1 cells; Mec-1, 1 µM, day 3) was 4.23 Fold Change, the “Rep 3 Live Cells [Fold Change]” value (Mec-1 cells; Mec-1, 1 µM, day 3) was 5.4 Fold Change and the “Rep 1 Live Cells [Fold Change]” value (Mec-1 cells; Mec-1, 1 µM, day 6) was 7.67 Fold Change. For the same compound, the “Rep 2 Live Cells [Fold Change]” value (Mec-1 cells; Mec-1, 1 µM, day 6) was 5.09 Fold Change, the “Rep 3 Live Cells [Fold Change]” value (Mec-1 cells; Mec-1, 1 µM, day 6) was 4.33 Fold Change and the “Rep 1 Live Cells [Fold Change]” value (Mec-1 cells; Mec-1, 1 µM, day 10) was 8.99 Fold Change. For the same compound, the “Rep 2 Live Cells [Fold Change]” value (Mec-1 cells; Mec-1, 1 µM, day 10) was 4.86 Fold Change, the “Rep 3 Live Cells [Fold Change]” value (Mec-1 cells; Mec-1, 1 µM, day 10) was 2.73 Fold Change and the “Rep 1 Live Cells [Fold Change]” value (Mec-1 cells; Mec-1, 1 µM, day 12) was 3.31 Fold Change. The “Rep 2 Live Cells [Fold Change]” value (Mec-1 cells; Mec-1, 1 µM, day 12) was 4.55 Fold Change, the “Rep 3 Live Cells [Fold Change]” value (Mec-1 cells; Mec-1, 1 µM, day 12) was 1.12 Fold Change and the “dose at which growth inhibition begins” value (Mec-1 cells; [1]) was 100 nM. For the same compound, the “effect on growth potential (cell growth)” value (Mec-1 cells; [1]) was “time and dose-dependent growth inhibition”.
